Measurements taken from patent publication US10851097B2, “4,5,6,7-tetrahydro-1H-imidazo[4,5-c]pyridine and 1,4,5,6,7,8-hexahydroimidazo[4,5-d]azepine derivatives as janus kinase inhibitors” (Topivert Pharma Limited, priority 2015, dated 2020).

What was measured:
Jurkat cells = assay: Cell cytotoxicity assay in Jurkat cells (assay (c)); assay type: cell-based, human; conditions: 24 h, propidium iodide, normalised to DMSO control
Protocol: (c) Cell Cytotoxicity Assay
1×10^5 Jurkat cells (immortalised human T lymphocytes) are added to the appropriate number of wells of a 96 well plate in 100 μL of media (RPMI supplemented with 10% foetal bovine serum). 1 μL of DMSO control (final concentration 1.0% v/v) or test compound (final concentration 20, 5 or 1 μg/mL) is added to the wells and incubated at 37° C., 5% CO2. After 24 hours, the plate is centrifuged at 1200 rpm for 3 minutes and the supernatant discarded. Cells are then resuspended in 150 μL (final concentration 7.5 μg/mL) of propidium iodide (PI) in PBS and incubated at 37° C., 5% CO2 for 15 minutes. After 15 minutes, cells are analysed by flow cytometry (BD accuri) using the FL3 window. The % viability is calculated as the % of cells that are PI negative in the test wells normalised to the DMSO control.

[1] = tested on: CD3/IL2 stimulated PBMC cells; assay: IFNγ release from CD3/IL2 stimulated PBMC cells (assay (a)); assay type: cell-based; conditions: Homo sapiens, CD3/IL2 stimulation, 48 h, ELISA
Protocol: (a) IFNγ Release from CD3/IL2 Stimulated PBMC Cells
PBMCs from healthy subjects are separated from whole blood using a density gradient (Lymphoprep, Axis-Shield Healthcare). Cells are added to a 96 well plate, and compound at the desired concentration added 2 hours prior to stimulation with a mixture of monoclonal antibody to CD3 (1 μg/ml, eBioscience) and human recombinant IL2 (10 ng/ml, Peprotech). After 48 hours incubation under normal tissue culture conditions, supernatants are collected and IFNγ release determined by Sandwich ELISA (Duo-set, R&D System). The IC50 is determined from the dose response curve.

SMILES	% viability at 1 μg/mL (Jurkat cells)	IC50 [1]
CCc1cc(O)c(F)cc1-c1ccc2c(-c3nc4c([nH]3)CCN(C(=O)c3cnc(N(C)CCN(C)C(C)=O)cn3)C4)n[nH]c2c1 [Example 2(n), N-(2-((5-(2-(6-(2-ethyl-5-fluoro-4-hydroxyphenyl)-1H-indazol-3-yl)-4,5,6,7-tetrahydro-1H-imidazo[4,5-c]pyridine-5-carbonyl)pyrazin-2-yl)(methy)amino)ethyl)-N-methylacetamide]	87%	29.2 nM
CCc1cc(O)c(F)cc1-c1ccc2c(-c3nc4c([nH]3)CCN(C(=O)c3cnc(N5CCN(CCO)CC5)cn3)C4)n[nH]c2c1 [Example 2(l), (2-(6-(2-ethyl-5-fluoro-4-hydroxyphenyl)-1H-indazol-3-yl)-6,7-dihydro-1H-imidazo[4,5-c]pyridin-5(4H)-yl)(5-(4-(2-hydroxyethyl)piperazin-1-yl)pyrazin-2-yl)methanone]	10%	9.4 nM
CCc1cc(O)c(F)cc1-c1ccc2c(-c3nc4c([nH]3)CCN(C(=O)c3cnc(N5CC(CO)C5)cn3)C4)n[nH]c2c1 [Example 2(o), (2-(6-(2-ethyl-5-fluoro-4-hydroxyphenyl)-1H-indazol-3-yl)-6,7-dihydro-1H-imidazo[4,5-c]pyridin-5(4H)-yl)(5-(3-(hydroxymethyl)azetidin-1-yl)pyrazin-2-yl)methanone]	62%	22.5 nM
CCc1cc(O)c(F)cc1-c1ccc2c(-c3nc4c([nH]3)CCN(C(=O)c3cnc(N5C[C@@H]6C(=O)NC(=O)[C@@H]6C5)cn3)C4)n[nH]c2c1 [Example 2(w), (3aR,6aS)-5-(5-(2-(6-(2-ethyl-5-fluoro-4-hydroxyphenyl)-1H-indazol-3-yl)-4,5,6,7-tetrahydro-1H-imidazo[4,5-c]pyridine-5-carbonyl)pyrazin-2-yl)tetrahydropyrrolo[3,4-c]pyrrole-1,3(2H,3aH)-dione]		942 nM
CCc1cc(O)c(F)cc1-c1ccc2c(-c3nc4c([nH]3)CCN(C(=O)c3cnc(NCCN5CC[S+]([O-])CC5)cn3)C4)n[nH]c2c1 [Example 2(d), (2-(6-(2-ethyl-5-fluoro-4-hydroxyphenyl)-1H-indazol-3-yl)-1,4,6,7-tetrahydro-5H-imidazo[4,5-c]pyridin-5-yl)(5-((2-(1-oxidothiomorpholino)ethyl)amino)pyrazin-2-yl)methanone]		270 nM
CCc1cc(O)c(F)cc1-c1ccc2c(-c3nc4c([nH]3)CCN(C(=O)c3cnc(N5CCN(CCn6ccnc6)CC5)cn3)C4)n[nH]c2c1 [Example 2(j), (5-(4-(2-(1H-imidazol-1-yl)ethyl)piperazin-1-yl)pyrazin-2-yl)(2-(6-(2-ethyl-5-fluoro-4-hydroxyphenyl)-1H-indazol-3-yl)-1,4,6,7-tetrahydro-5H-imidazo[4,5-c]pyridin-5-yl)methanone]	12%	5.3 nM
CCc1cc(O)c(F)cc1-c1ccc2c(-c3nc4c([nH]3)CCN(C(=O)c3cnc(NCCS(C)(=O)=O)cn3)C4)n[nH]c2c1 [Example 2(q), (2-(6-(2-ethyl-5-fluoro-4-hydroxyphenyl)-1H-indazol-3-yl)-6,7-dihydro-1H-imidazo[4,5-c]pyridin-5(4H)-yl)(5-((2-(methylsulfonyl)ethyl)amino)pyrazin-2-yl)methanone]	94%	113 nM
CCc1cc(O)c(F)cc1-c1ccc2c(-c3nc4c([nH]3)CCN(C(=O)c3cnc(N(C)Cc5ccccn5)cn3)C4)n[nH]c2c1 [Example 2(c), (2-(6-(2-ethyl-5-fluoro-4-hydroxyphenyl)-1H-indazol-3-yl)-1,4,6,7-tetrahydro-5H-imidazo[4,5-c]pyridin-5-yl)(5-(methyl(pyridin-2-ylmethyl)amino)pyrazin-2-yl)methanone]		37 nM
CCc1cc(O)c(F)cc1-c1ccc2c(-c3nc4c([nH]3)CCN(C(=O)c3cnc(N5CCN(CCN(C)C)CC5)cn3)C4)n[nH]c2c1 [Example 2(f), (5-(4-(2-(dimethylamino)ethyl)piperazin-1-yl)pyrazin-2-yl)(2-(6-(2-ethyl-5-fluoro-4-hydroxyphenyl)-1H-indazol-3-yl)-1,4,6,7-tetrahydro-5H-imidazo[4,5-c]pyridin-5-yl)methanone]	16%	49.3 nM
CCc1cc(O)c(F)cc1-c1ccc2c(-c3nc4c([nH]3)CCN(C(=O)c3cnc(NCCN5CCC(O)CC5)cn3)C4)n[nH]c2c1 [Example 2(b), (2-(6-(2-ethyl-5-fluoro-4-hydroxyphenyl)-1H-indazol-3-yl)-1,4,6,7-tetrahydro-5H-imidazo[4,5-c]pyridin-5-yl)(5-((2-(4-hydroxypiperidin-1-yl)ethyl)amino)pyrazin-2-yl)methanone]		87 nM
CCc1cc(O)c(F)cc1-c1ccc2c(-c3nc4c([nH]3)CCN(C(=O)c3cnc(N5C[C@H]6CN(C)C[C@H]6C5)cn3)C4)n[nH]c2c1 [Example 2(t), (2-(6-(2-ethyl-5-fluoro-4-hydroxyphenyl)-1H-indazol-3-yl)-6,7-dihydro-1H-imidazo[4,5-c]pyridin-5(4H)-yl)(5-((3aR,6aS)-5-methylhexahydropyrrolo[3,4-c]pyrrol-2(1H)-yl)pyrazin-2-yl)methanone]	18%	15.2 nM
CCc1cc(O)c(F)cc1-c1ccc2c(-c3nc4c([nH]3)CCN(C(=O)c3cnc(N(CCOC)CCOC)cn3)C4)n[nH]c2c1 [Example 2(i), (5-(bis(2-methoxyethyl)amino)pyrazin-2-yl)(2-(6-(2-ethyl-5-fluoro-4-hydroxyphenyl)-1H-indazol-3-yl)-1,4,6,7-tetrahydro-5H-imidazo[4,5-c]pyridin-5-yl)methanone]	53%	14.5 nM
CCc1cc(O)c(F)cc1-c1ccc2c(-c3nc4c([nH]3)CCN(C(=O)c3cnc(N(C)CCN5CCOC5=O)cn3)C4)n[nH]c2c1 [Example 2(u), 3-(2-((5-(2-(6-(2-ethyl-5-fluoro-4-hydroxyphenyl)-1H-indazol-3-yl)-4,5,6,7-tetrahydro-1H-imidazo[4,5-c]pyridine-5-carbonyl)pyrazin-2-yl)(methyl)amino)ethyl)oxazolidin-2-one]		73.8 nM
CCc1cc(O)c(F)cc1-c1ccc2c(-c3nc4c([nH]3)CCN(C(=O)c3cnc(N(C)CCN5CCCS5(=O)=O)cn3)C4)n[nH]c2c1 [Example 2(v), (5-((2-(1,1-dioxidoisothiazolidin-2-yl)ethyl)(methyl)amino)pyrazin-2-yl)(2-(6-(2-ethyl-5-fluoro-4-hydroxyphenyl)-1H-indazol-3-yl)-6,7-dihydro-1H-imidazo[4,5-c]pyridin-5(4H)-yl)methanone]	82%	7.5 nM
CCc1cc(O)c(F)cc1-c1ccc2c(-c3nc4c([nH]3)CCN(C(=O)c3cnc(N5C[C@H](O)[C@@H](O)[C@H](O)[C@H]5CO)cn3)C4)n[nH]c2c1 (stereo in doubt) [Example 2(s), (2-(6-(2-ethyl-5-fluoro-4-hydroxyphenyl)-1H-indazol-3-yl)-6,7-dihydro-1H-imidazo[4,5-c]pyridin-5(4H)-yl)(5-((2R,3R,4R,5S)-3,4,5-trihydroxy-2-(hydroxymethyl)piperidin-1-yl)pyrazin-2-yl)methanone]		694 nM
CCc1cc(O)c(F)cc1-c1ccc2c(-c3nc4c([nH]3)CCN(C(=O)c3cnc(N5CC[S+]([O-])CC5)cn3)C4)n[nH]c2c1 [Example 2(e), (2-(6-(2-ethyl-5-fluoro-4-hydroxyphenyl)-1H-indazol-3-yl)-1,4,6,7-tetrahydro-5H-imidazo[4,5-c]pyridin-5-yl)(5-(1-oxildothiomorpholino)pyrazin-2-yl)methanone]	96%	57.6 nM
CCc1cc(O)c(F)cc1-c1ccc2c(-c3nc4c([nH]3)CCN(C(=O)c3cnc(N(CCO)CCO)cn3)C4)n[nH]c2c1 [Example 2(p), (5-(bis(2-hydroxyethyl)amino)pyrazin-2-yl)(2-(6-(2-ethyl-5-fluoro-4-hydroxyphenyl)-1H-indazol-3-yl)-6,7-dihydro-1H-imidazo[4,5-c]pyridin-5(4H)-yl)methanone]		154 nM
CCc1cc(O)c(F)cc1-c1ccc2c(-c3nc4c([nH]3)CCN(C(=O)c3cnc(NCCN5CCCC5=O)cn3)C4)n[nH]c2c1 [Example 2(r), 1-(2-((5-(2-(6-(2-ethyl-5-fluoro-4-hydroxyphenyl)-1H-indazol-3-yl)-4,5,6,7-tetrahydro-1H-imidazo[4,5-c]pyridine-5-carbonyl)pyrazin-2-yl)amino)ethyl)pyrrolidin-2-one]		90.8 nM
CCc1cc(O)c(F)cc1-c1ccc2c(-c3nc4c([nH]3)CCN(C(=O)c3cnc(N(C)CCCC(=O)O)cn3)C4)n[nH]c2c1 [Example 2(a), 4-((5-(2-(6-(2-ethyl-5-fluoro-4-hydroxyphenyl)-1H-indazol-3-yl)-4,5,6,7-tetrahydro-1H-imidazo[4,5-c]pyridine-5-carbonyl)pyrazin-2-yl)(methyl)amino)butanoic acid]		732 nM
CCc1cc(O)c(F)cc1-c1ccc2c(-c3nc4c([nH]3)CCN(C(=O)c3cnc(NCCC5(O)CCN(C)CC5)cn3)C4)n[nH]c2c1 [Example 2(g), (2-(6-(2-ethyl-5-fluoro-4-hydroxyphenyl)-1H-indazol-3-yl)-1,4,6,7-tetrahydro-5H-imidazo[4,5-c]pyridin-5-yl)(5-((2-(4-hydroxy-1-methylpiperidin-4-yl)ethyl)amino)pyrazin-2-yl)methanone]		271 nM
